Measurements: publication PMC9486805, “Identification of a Phage Display-Derived Peptide Interacting with the N-Terminal Region of Factor VII Activating Protease (FSAP) Enables Characterization of Zymogen Activation” (ACS Chemical Biology, 2022)

Legend:
[1] = Substrate turnover in FSAP-depleted plasma; format: biochemical, human; settings: FSAP-depleted citrate plasma 1:12; 25 μM (Fig 6A)
Protocol: (§1) Figure 6 Pro-FSAP activation and clotting in plasma by NNKC9/41: (A) citrate plasma (1:12 dilution) from donors with WT/WT, WT/MI, and MI/MI genotypes and WT-FSAP-deficient plasma (FSAP-DP) were compared. Substrate turnover was monitored after addition of NNKC9/41 or the Ser–Ser linear peptide (25 μM each). Results are shown as mean + range of duplicate wells. (B) Pooled prothrombin-deficient citrated plasma (1:5 dilution) was recalcified with 10 mM CaCl2 and incubated with NNKC9/41 or scrambled control peptide (0–25 μM each) for 60 min at 37 °C in the presence or absence of the FSAP-inhibitory MA-FSAP-38C7 (5 μg/mL). Initiation of clotting was achieved by adding the tissue factor/phospholipid and prothrombin complex concentrate. Clotting time was measured as diluted prothrombin time (dPT) in seconds. Data are the mean of three independent experiments. The relative dPT in % of the untreated control is presented as mean ± standard error (SE) (*p <0.05, two-way analysis of variance (ANOVA) and Bonferroni post-test).
(§2) Human citrate plasma (0.38% w/v) or hirudin plasma (25 μg/mL Lepirudin) was obtained from five healthy donors. […] Hydrolysis of the fluorogenic substrates was measured using a Synergy HI plate reader with excitation at 320 nm and emission at 460 nm at 37 °C for 60 min. The maximal velocity was calculated from the linear part of the progress curve. […]

[2] = molecular target: T1, pro-FSAP purified from human plasma (Homo sapiens, UniProt Q14520); assay: Pro-FSAP activation assay, purified pro-FSAP, chromogenic substrate S-2288; format: biochemical
T1 construct: Pro-FSAP was isolated from human plasma as described before; from tissue; host or cells: human plasma
Protocol: Figure 1 Isolation of pro-FSAP binding peptides and their activity: (A) strategy to isolate high-affinity phages from the NNKC9 and NNK11 libraries that bind to pro-FSAP. To select for strong binders, an excess of free pro-FSAP protein was used for competitive elution of low-affinity binders. High-affinity binders retained on the beads were analyzed further. The sequences of major positive clones identified through an ELISA-based binding assay from the NNKC9 and NNK11 libraries are shown. (B) NNK11/189 and scrambled controls (0–50 μM) and histones (0–50 μg/mL) were added to purified pro-FSAP (1.0 μg/mL) and the turnover of the chromogenic substrate S-2288 (200 μM) was measured. (C) NNKC9/41 was compared to a peptide that was synthetically monocyclized (Cys–Cys cyclic), a peptide with Ser residues instead of Cys at both ends (Ser–Ser linear), a peptide with Ser residues at the end cyclized head to tail (Ser–Ser cyclic), and a scrambled peptide in a pro-FSAP activation assay. (D) Hirudin plasma (1:12 dilution) was incubated with histones (25 μg/mL), NNKC9/41, or Ser–Ser linear control (each, 25 μM), the fluorogenic substrate turnover (Ac–Ala–Lys–Nle–Arg–AMC) was monitored in duplicate wells, and results from a single well are shown. In panels (B) and (C), results are shown as mean + range (duplicate wells). Results were replicated with five different batches of NNKC9/41 (panels (B) and (C)).
Pro-FSAP was isolated from human plasma as described before.[14] The content of the zymogen form varied from 50% to 90% due to autoactivation during the purification process. Histones, isolated from the calf thymus, were obtained from Sigma-Aldrich (Oslo, Norway). FSAP activity assays were performed as described previously.[51] In brief, microtiter wells were blocked with TBS (25 mM Tris–HCl, pH 7.5, and 150 mM NaCl) containing 3% (w/v) BSA for 1 h and washed with TBS-T. The standard assay consisted of TBS-T with 0.3% (w/v) BSA and CaCl2 (2 mM) 1 μg/mL (15 nM) plasma purified pro-FSAP and 250 μM chromogenic substrate S-2288 (D-Ile-L-Pro-L-Arg-p-nitroaniline dihydrochloride) (Haemochrome Diagnostica, Essen, Germany) and was followed at 37 °C at 405 nm in a microplate reader Synergy HI plate reader (BioTek Instruments, Winooski). In some experiments, a fluorescent substrate of FSAP[35] was used.

[3] = system: pro-FSAP in MI/MI plasma; assay: Substrate turnover in MI/MI plasma; format: biochemical, human; settings: MI/MI citrate plasma 1:12; 25 μM (Fig 6A)
Protocol: as §1, §2

[4] = molecular target: T2, pro-FSAP in human plasma (Homo sapiens, UniProt Q14520); assay: Activation of endogenous pro-FSAP in plasma, fluorogenic substrate turnover; format: biochemical
T2 construct: from tissue; host or cells: human hirudin or citrate plasma from healthy donors, diluted 1:12
T2 sequence (Q14520 24-560): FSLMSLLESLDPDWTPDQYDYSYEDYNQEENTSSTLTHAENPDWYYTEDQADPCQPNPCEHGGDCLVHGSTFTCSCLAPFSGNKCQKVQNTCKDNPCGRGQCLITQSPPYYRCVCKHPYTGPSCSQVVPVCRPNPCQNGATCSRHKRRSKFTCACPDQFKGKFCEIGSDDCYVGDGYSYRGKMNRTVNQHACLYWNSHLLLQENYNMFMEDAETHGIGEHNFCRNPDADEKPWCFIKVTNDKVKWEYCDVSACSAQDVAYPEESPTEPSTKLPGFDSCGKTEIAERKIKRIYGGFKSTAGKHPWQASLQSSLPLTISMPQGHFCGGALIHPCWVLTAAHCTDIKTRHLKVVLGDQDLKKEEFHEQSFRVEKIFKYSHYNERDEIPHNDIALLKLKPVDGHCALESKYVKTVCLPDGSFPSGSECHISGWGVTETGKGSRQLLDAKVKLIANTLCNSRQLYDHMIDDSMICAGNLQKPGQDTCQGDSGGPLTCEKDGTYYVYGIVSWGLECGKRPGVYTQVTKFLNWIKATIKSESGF

T1 sequence (Q14520 24-560): as above

CRGAMWMYKRC [NNKC9/41]
substrate turnover [1]: no turnover of the substrate
effect on pro-FSAP activation ([2]; purified pro-FSAP 1.0 μg/mL, peptides 0–50 μM, histones 0–50 μg/mL, S-2288 (200 μM in legend b10, 250 μM in method b60), 37 °C, 405 nm, duplicate wells): able to robustly activate pro-FSAP
Maximal activation ([2]; purified pro-FSAP, S-2288, linear synthetic peptide stored under oxidative conditions, duplicate wells, five batches): 2–2.5 fold
selectivity for pro-FSAP activation ([2]; versus plasminogen, pro-urokinase, factor XII, prothrombin, factor X and active enzymes): very high selectivity
substrate turnover [3]: none
effect in citrate plasma 1:2 ([4]; citrate plasma 1:2, 10 μM, 3 donors (Fig S5)): completely abolished
pro-FSAP activation in 1:2 diluted plasma vs higher dilution ([4]; hirudin and citrate plasma 1:2 (Fig S5)): lower pro-FSAP activation
